In PMC8466962, “Isolation and Biological Characterization of Homoisoflavanoids and the Alkylamide N-p-Coumaroyltyramine from Crinum biflorum Rottb., an Amaryllidaceae Species Collected in Senegal” (Biomolecules, 2021):

Columns and labels:
[1] = test system: acetylcholinesterase (AChE); test: Anti-acetylcholinesterase assay (Ellman); type: biochemical
Experimental: In vitro acetylcholinesterase (AChE) activity was assessed exactly as in Ka et al. (2020) following Ellman’s colorimetric protocol with the Acetylcholinesterase Assay Kit (Abcam Inc., Boston, MA, USA). Briefly, 50 µL serial dilutions (3.9–500 µM) of compounds 1–5 were prepared in Tris-HCl pH = 7.9 buffer into designated wells of a clear 96 well-plate. A total of 5 µL of DTNB was added in each well, then 50 µL of diluted acetycholinesterase was added. The plate was incubated for 10 min in the dark. Matched concentrations of DMSO were used as a negative control. Kinetic of reaction was measured in a multiple plate reader at 410 nm in kinetic mode for 40 min at room temperature. The percentage of anti-AChE inhibition was calculated according to the following formula: 100 − [((E − S)/E) × 100], where E is the activity of the enzyme with matched concentrations of DMSO and S is the activity of the enzyme with the test sample.

α-glucosidase = α-glucosidase inhibitor assay (colorimetric kit); type: biochemical
Experimental: (§1) α-glucosidase and α-amylase inhibitor screening kits (colorimetric) were purchased from Biovision (Milpitas, CA, USA). In total, 10 mM of stock solution of all the tested compounds were dissolved in DMSO and serially diluted in the assay buffer of each kit. Experiments were performed according to the manufacturer’s protocol. Briefly, for the α-glucosidase assay, 10 µL of serially diluted compounds at the corresponding concentration ([…]–1 mM) were added into designated wells of clear 96 well-plates. Subsequently, 10 µL of the α-glycosidase enzyme was added to each well and volume was adjusted to 80 µL and plates were incubated for 15-min at room temperature in dark condition. Then, 20 µL of α-glycosidase substrate mixture was added in all wells and kinetic of reaction was measured at OD: 410 nm for 60 min at 2 min intervals by using a multiplate reader, Biotek instrument, Inc., Canada. Enzyme control (no inhibitor), background control (no enzyme), solvent control (DMSO) and inhibitor control (acarbose) were included in the plates. For the α-amylase assay, 50 µL of serially diluted compounds (3.25 µM to 500 µM) were added into a clear 96-well plate with 50 µL of assay buffer and 50 µL of α-amylase enzymes. The plate was incubated at room temperature in the dark for 10 min. Then 50 µL of the α-amylase substrate was added in all wells. The kinetic of reaction was measured at OD:410 nm for 26 min at intervals of 2 min by using a multiplate reader. Control α-amylase inhibitor was provided by the manufacturer, enzyme control, background control and solvent control were all included. Enzyme inhibition was calculated according to Zhang et al. (2014). In summary, ODs were plotted according to the time for each sample. Areas under the curve (AUC) were calculated, and enzyme inhibition was measured as 100−(AUCcompound/AUCenzyme) × 100 for each dilution of each compound.

in vitro [2] = settings: human; for IC50 at 24 h: HeLa cervical cancer cells
Description: (§2) HeLa cervical cancer cells (CCL-2) and A431 (ATCC-CRL1555) human epidermoid carcinoma cells were from American Type Culture Co [...

THP-1 cells = test: Propidium iodide cytotoxicity in THP-1 cells; settings: 72 h; for PI+ cells: 100 μM; for Dead cells: all concentrations tested (12.5-100 μM)
[3] = test system: VSV-G pseudotyped HIV-1GFP; test: VSV-G pseudotyped HIV-1GFP infectivity assay in THP-1 cells; type: cell-based; settings: for Infection (mean % HIV-1GFP+ cells): 100 μM, THP-1, MOI 1, 72 h, DMSO 8.16%; for Fold decrease in infection: 50 μM, THP-1, 72 h; for Infection levels at lower concentrations: below 50 μM (12.5, 25 μM)
in vitro [4] = settings: human, A431 epidermoid carcinoma cells
Description: as §2

in vitro [5] = settings: human, HaCaT immortalized keratinocytes
Description: as §2

[6] = test system: ovarian carcinoma, melanoma and non-small lung cancer cells; set-up: method as in PMID 23659371; settings: cited from earlier work
[7] = test system: HaCaT, HeLa and A431 cells; test: γ-H2AX foci immunofluorescence (DNA damage); type: cell-based, human; settings: 10 μM, 24 h, all tested cell lines
Experimental: Cells were seeded in 35 mm dishes on micro cover glasses (BDH) and treated with the metabolite at a concentration of 10 μM. […] Cells were permeabilized with ice-cold 0.5% Triton X-100 for 5 min and then washed with PBS. Cells were then incubated with phospho-histone H2A.X (Ser139) antibody (from Cell Signaling Technologies 9542, Boston, MA, USA) for 1 h, followed by DAPI (Sigma-Aldrich) for 3 min and washed with PBS/0.05% Tween. Coverslip was mounted with Ibidi mounting medium (Ibidi GmbH, Martinsried, Germany). Images were taken with a Zeiss confocal laser-scanning microscope Axio Observer (Zeiss, Ostfilden, Germany) (scale bar, 20 μm). A 40× objective was used and image analysis was performed using Fiji ImageJ open source software project (https://imagej.net/imaging/). All the images were taken with the same setting.

HaCaT cells = test: DCFDA assay (ROS); type: cell-based, human; settings: for Production of reactive oxygen species (ROS): 10 µM, HaCaT cells
Experimental: N-p-coumaroyltyramine antioxidant activity was measured using 2′−7′dichlorofluorescein diacetate (DCFDA), a non-fluorescent compound permeable to the cell membrane, which can be oxidized by reactive oxygen species (ROS) giving a fluorescent compound. […] The medium was removed after 4 h and 1 mM (3%) H2O2 was added for 45 min, 1.5 and 2.0 h. Cells were washed with PBS and a fresh medium with DCFDA ([…]) was added for 45 min, then DCFDA was removed by washing in PBS and the cells were harvested. The measurement of ROS was obtained using the Sinergy H4 microplate reader (Gen5 2.07, Thermofisher, Waltham MA, USA). The fluorescence emitted from the cells treated with DCFDA was compared to the untreated cells. Trolox was used as a positive control. Values shown in the plot are mean ± SD of sixfold determinations. The mean and the standard deviation were calculated on biological triplicates using GraphPad Prism 8.0.2 software (GraphPad, San Diego, CA, USA).

[8] = test system: HaCaT immortalized keratinocytes; settings: for Effect on HaCaT cell viability: incubation extended for 48 h, 0.5 to 10 μM
Description: as §2

[9] = test system: A431 human epidermoid carcinoma cells; settings: 0.5 to 10 μM, 24 and 48 h
Description: as §2

α-amylase = α-amylase inhibitor assay (colorimetric kit); type: biochemical; settings: concentrations 3.9-250 μM, 26 min kinetics
Experimental: as §1, with “For the α-amylase assay, 50 µL of serially diluted compounds (3.25 µM to 500 µM) were added into a clear 96-well plate with 50 µL of assay buffer and 50 µL of α-amylase enzymes. The plate was incubated at room temperature in the dark for 10 min. Then 50 µL of the α-amylase substrate was added in all wells.” left out, “Control α-amylase inhibitor was provided by the manufacturer, enzyme control, background control and solvent control were all included.” left out, “In summary, ODs were plotted according to the time for each sample.” left out

[10] = test system: HeLa cervical cancer cells; settings: 0.5 to 10 μM, 24 and 48 h
Description: as §2

Dengue virus (DENV) = test system: Dengue virus (DENV); set-up: method as in PMID 34152811; settings: read-out: DENV replication EC50; cited from earlier work
[11] = test system: human immunodeficiency virus type 1 (HIV-1); set-up: method as in PMID 34152811; settings: cited from earlier work
Zika virus (ZIKV) = test system: Zika virus (ZIKV); set-up: method as in PMID 34152811; settings: read-out: ZIKV replication EC50; cited from earlier work
[12] = increasing inhibition from 15.6 μM to 250 μM

Row | SMILES | AChE inhibition [1, 12] | α-glucosidase inhibition (α-glucosidase; 1 mM) | IC50 at 24 h (in vitro [2]) | PI+ cells (THP-1 cells) | Infection (mean % HIV-1GFP+ cells) [3] | IC50 at 24 h (in vitro [4]) | IC50 at 24 h (in vitro [5]) | Dead cells (THP-1 cells) | Fold decrease in infection [3] | Infection levels at lower concentrations [3] | Nuclear γH2AX foci [7] | Production of reactive oxygen species (ROS) (HaCaT cells) | Effect on HaCaT cell viability [8] | other results
1 | COc1cc2c(c(OC)c1OC)C(=O)C(Cc1ccc(O)cc1)CO2 (centres unmarked) [Compound 1, 5,6,7-trimethoxy-3-(4-hydroxybenzyl)chroman-4-one] | up to 20% | 50% | 1 µM | 8.74% | 3.78% | 6 µM | > 10 µM |  |  |  |  |  |  | viability at 48 h, 5 µM (in vitro [2]; HeLa cervical cancer cells (CCL-2)): < 20%
2 | COc1cc2c(c(OC)c1OC)C(=O)C(O)(Cc1ccc(O)cc1)CO2 (centres unmarked) [Compound 2, 3-hydroxy-5,6,7-trimethoxy-3-(4-hydroxybenzyl)chroman-4-one] | up to 20% | 50% | 4 µM | 4.15% | 4.03% | > 10 µM | > 10 µM |  |  |  |  |  |  | 
3 | COc1ccc(CC2(O)COc3cc(OC)c(OC)c(OC)c3C2=O)cc1 (centres unmarked) [Compound 3, 3-hydroxy-5,6,7-trimethoxy-3-(4-methoxybenzyl)chroman-4-one] |  | 50% | 4.5 µM |  | 2.51% | 4 µM | > 10 µM | 30–40% | 2.0 fold | decreased infection levels | remarkable increase | did not increase | significant reduction | AChE enzyme activity blocked ([1]; concentrations increased from 3.9 to 500 μM): 15–30%; Antiproliferative activity [6]: submicromolar concentration
4 | COc1ccc(CC2COc3cc(OC)c(OC)c(OC)c3C2=O)cc1 (centres unmarked) [Compound 4, 5,6,7-trimethoxy-3-(4-methoxybenzyl)chroman-4-one] | up to 20% |  | 5.5 µM |  | 2.76% | 6.5 µM | > 10 µM | 30–40% | 2.4 fold | decreased infection levels | remarkable increase | did not increase | significant reduction | 
5 | O=C(/C=C/c1ccc(O)cc1)NCCc1ccc(O)cc1 [Compound 5, (E)-N-(4-hydroxyphenethyl)-3-(4-hydroxyphenyl)acrylamide] |  |  |  | 5.97% | 2.12% |  |  |  | 1.6 fold |  |  |  |  | AChE inhibition ([1]; high concentrations): weakly inhibited; α-glucosidase inhibition (α-glucosidase; all concentrations tested, 0.01-1000 μM): nearly completely inhibited; Toxicity on A431 cancer cells [9]: toxic; Antioxidant activity: ROS induced by H2O2 (HaCaT cells; 10 and 100 µM, 4 h pre-treatment, H2O2 1 mM, Trolox positive control): antioxidant activity comparable to Trolox; Effect on HaCaT cell viability at the lower concentrations ([8]; 0.5 and 1 μM): significantly increase HaCaT cell viability; Cytotoxic activity IC50, HaCaT ([8]; MTT, 24 h of incubation): Not detected; IC50 (α-amylase): 40 µM; Toxicity on HeLa cancer cells [10]: toxic
6 | COc1cc2c(cc1O)CN(C)C[C@H]2c1ccc(O)cc1 [cherylline] |  |  |  |  |  |  |  |  |  |  |  |  |  | EC50 (Dengue virus (DENV)): 8.8 µM; Effect on HIV-1 infection [11]: ineffective; EC50 (Zika virus (ZIKV)): 20.3 µM
